The text below walks through data of patent publication US20110195049A1, “COMPOSITIONS AND METHODS FOR TREATING MULTIPLE SCLEROSIS” (BIOVISTA, INC., priority 2008, published 2011).

In series [1] the test system is acute EAE murine model of MS. The series is described as follows: Acute EAE murine model (MOG-induced), clinical score over 35 days. The series is classed as in vivo, female C57BL/6J mice.
The subject of the next series is NMDA receptor. The settings on record: dose producing the anti-NMDA effect; cited from earlier work.
The conditions of series [2]: disturbance of coordination of movement and a sedative effect; cited from earlier work.

Structures are written as SMILES. Structures can show the parent of a compound that is named as a salt.

As to `Cc1ccc2c(c1)c1c(n2CCc2ccc(C)nc2)CCN(C)C1` [Dimebon, 2,8-dimethyl-5-(2-(6-methyl-3-pyridyl)ethyl)-2,3,4,5-tetrahydro-1H-pyrido[4,3-b]indole dihydrochloride], the “activity (average clinical score) compared to the vehicle-only treatment group (1F)” value in series [1] (1.0 mg/kg IP once daily from study day 0, 35-day study, n = 10) is listed as “statistically significant”; in series [1] (10.0 mg/kg IP once daily (group 5F), at the end of the study), “not statistically significant”; in series [1] (10.0 mg/kg IP once daily (group 5F), intermediate time points, days 26 and 27), “statistically significant”.

Consider `NC(CCCP(=O)(O)O)C(=O)O` (centres unmarked) [AP5, 2-amino-5-phosphonovaleric acid], for which the “ED50 of anti-NMDA effect” value in the series with NMDA receptor is given as 190 mg/kg. Further, in series [2], the “adverse effects at doses producing the anti-NMDA effect” value was “neurotoxic effects”.
